The text below walks through data of US9862684B2, “Modulation of K2P channels” (The Regents of the University of California, priority 2013, dated 2018).

SMILES strings stand for the structures. Where two headings read alike, the source gives them in different places.

Series [1] has as its target T1, K2P2.1 (TREK-1) (Mus musculus, UniProt P97438).
T1 construct: expressed in transfected cells; host or cells: Xenopus oocytes (cRNA injection, pGEMHE/pMO)
T1 sequence (P97438 1-411 isoform P97438-2): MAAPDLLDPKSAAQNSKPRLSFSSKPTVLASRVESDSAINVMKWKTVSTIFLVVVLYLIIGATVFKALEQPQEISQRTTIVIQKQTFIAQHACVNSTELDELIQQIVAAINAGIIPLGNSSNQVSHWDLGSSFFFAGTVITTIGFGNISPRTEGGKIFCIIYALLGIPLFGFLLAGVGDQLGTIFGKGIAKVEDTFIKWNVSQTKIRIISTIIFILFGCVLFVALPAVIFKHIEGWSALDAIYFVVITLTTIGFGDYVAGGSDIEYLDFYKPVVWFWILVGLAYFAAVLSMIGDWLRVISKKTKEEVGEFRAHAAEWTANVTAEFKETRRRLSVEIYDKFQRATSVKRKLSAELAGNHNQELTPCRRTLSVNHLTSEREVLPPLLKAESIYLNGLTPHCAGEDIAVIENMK
The series can be described thus: Two-electrode voltage clamp of Xenopus oocytes expressing K2P2.1 (TREK-1). The series is classed as cell-based, Murine. Particulars: two-electrode voltage clamp, Xenopus oocytes. On the procedure: (§1) Two-electrode voltage clamp recordings were performed from defolliculated stage V-VI Xenopus oocytes 24-48 hours after injection with 0.015-6.0 ng cRNA, using microelectrodes (0.3-3.0 MΩ) filled with 3M KCl. […] Recording solutions (mM): 2K (96 NaCl, 2 KCl, 1.8 CaCl2, 2 MgCl2), 90K (90 KCl, 8 NaCl, 1.8 CaCl2, 2 MgCl2), were buffered 5 mM HEPES pH 7.4. For K2P recordings, currents we elicited by a 1 second long ramp from −150 to +50 mV from a holding potential of −80 mV (2K), or −100 to +50 mV from a holding potential of 0 mV (90K). For KCNQ2 recordings, currents were elicited by a step protocol from −120 to 60 mV, in 20 mV increments, from a holding potential of −80 mV. […] Currents were elicited by a 1 second long ramp from −150 to +50 mV from a holding potential of −80 mV.

The target in series [2] is T2, TREK-1 (Mus musculus, UniProt P97438).
T2 construct: expressed in transfected cells
T2 sequence (P97438 1-411 isoform P97438-2): T1 sequence (P97438 1-411 isoform P97438-2)
The series can be described thus: Antagonist compound examples, modulation of TREK-1 (current inhibition), Table 5. The series is classed as cell-based, Murine. As to the method: (§2) Two-electrode voltage clamp recordings were performed from defolliculated stage V-VI Xenopus oocytes 24-48 hours after injection with 0.015-6.0 ng cRNA, using microelectrodes (0.3-3.0 MΩ) filled with 3M KCl. Data was acquired using the GeneClamp 500B (MDS Analytical Technologies) amplifier controlled by the pClamp software (Molecular Devices), and digitized at 1 kHz using Digidata 1332A (MDS Analytical Technologies). Recording solutions (mM): 2K (96 NaCl, 2 KCl, 1.8 CaCl2, 2 MgCl2), 90K (90 KCl, 8 NaCl, 1.8 CaCl2, 2 MgCl2), were buffered 5 mM HEPES pH 7.4. For K2P recordings, currents we elicited by a 1 second long ramp from −150 to +50 mV from a holding potential of −80 mV (2K), or −100 to +50 mV from a holding potential of 0 mV (90K). For KCNQ2 recordings, currents were elicited by a step protocol from −120 to 60 mV, in 20 mV increments, from a holding potential of −80 mV. Patch-clamp recordings from HEK-293T cells were performed using microelectrodes (2-3 MΩ) filled with 1M KCl. Data was acquired using the Axopatch 200B amplifier controlled by pClamp software, and digitized at 1 kHz using Digidata 1332A. Recording solutions (mM): intracellular (145 KCl, 5 EGTA, 3 MgCl2,) extracellular (150 NaCl, 5 KCl, 3 MgCl2, 1 CaCl2) were buffered with 5 mM HEPES pH 7.2 and 7.4, respectively. Currents were elicited by a 1 second long ramp from −150 to +50 mV from a holding potential of −80 mV. Data were fitted with a modified Hill's equation: I=Imin+(Imax−Imin)/(1+10^((Log EC50−Log [C])*H)), where Imax and Imin are maximal and minimal current values, respectively, EC50 is a half-maximal effective concentration of the compound, and H is the Hill coefficient.

In series [3] the target is T2, TREK-1. Nature of the series: Modulation of TREK-1 by select compounds (agonist activity), Table 3. The class given is cell-based, Murine. Particulars: agonist activity on TREK-1. As to the method:
as §1

The next series addresses T3, K2P3.1 (TASK-1) (Mus musculus, UniProt O35111).
T3 construct: expressed in transfected cells; host or cells: Xenopus oocytes
The series can be described thus: Two-electrode voltage clamp, Xenopus oocytes expressing K2P3.1 (TASK-1). The class given is cell-based, Murine. As to the method:
(§3) FIG. 7 ML67-33 is a selective activator of heat- and mechanosensitive K2P channels. a-f, Exemplar I-V curves showing the effect of ML67-33 on a, K2P10.1 (TREK-2), b, K2P4.1 (TRAAK), c, K2P3.1 (TASK-1), d, K2P9.1 (TASK-3), e, K2P5.1 (TASK-2), and f, K2P18.1 (TRESK) measured in Xenopus oocytes in 2 mM [K^+]o pH 7.4. Currents were elicited by a voltage ramp from −150 to 50 mV, from a holding potential of −80 mV. g, Quantification of the effect of ML67-33 on the indicated channels. Data (mean±s.e., n≧6, N≧2) was normalized to basal channel activity and fitted to the Hill equation. […] Error bars indicate s.e., n≧6, N≧2.
(§4) Murine K2P channels were cloned into pGEMHE/pMO {Bagriantsev, 2011}, IRES-GFP (Invitrogen), or pYES2-MET25 (high copy 2μ, URA3) {Minor, 1999} for expression in oocytes, HEK-293T cells, and yeast, respectively, using standard molecular biology procedures, and verified by DNA sequencing.
as §2
(§5) There are six K2P subgroups {Noel, 2011} (FIG. 11). […]
On the technique in general: In two-electrode clamp one electrode senses voltage and the other passes current.

The next series concerns the target T4, K2P10.1 (TREK-2) (Mus musculus, UniProt Q8BUW1).
T4 construct: expressed in transfected cells; host or cells: Xenopus oocytes
T4 sequence (Q8BUW1 1-535): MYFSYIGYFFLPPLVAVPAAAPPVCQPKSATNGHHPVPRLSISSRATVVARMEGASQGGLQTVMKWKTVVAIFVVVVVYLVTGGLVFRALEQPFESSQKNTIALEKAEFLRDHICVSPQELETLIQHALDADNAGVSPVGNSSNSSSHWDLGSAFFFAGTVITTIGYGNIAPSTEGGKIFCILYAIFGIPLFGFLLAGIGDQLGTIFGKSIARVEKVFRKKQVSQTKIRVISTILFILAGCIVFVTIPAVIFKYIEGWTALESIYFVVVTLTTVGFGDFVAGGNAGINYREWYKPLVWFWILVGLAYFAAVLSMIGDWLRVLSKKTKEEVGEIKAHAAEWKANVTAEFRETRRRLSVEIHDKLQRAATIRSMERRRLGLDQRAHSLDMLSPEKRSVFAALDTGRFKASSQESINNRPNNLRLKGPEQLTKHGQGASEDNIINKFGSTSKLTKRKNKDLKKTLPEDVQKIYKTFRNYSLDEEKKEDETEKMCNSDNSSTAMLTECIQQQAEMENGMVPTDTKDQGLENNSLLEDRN
Nature of the series: Two-electrode voltage clamp, Xenopus oocytes expressing K2P10.1 (TREK-2). The series is classed as cell-based, Murine. As to the method: as §3, §4, §2, §5

For another series, the target named is T5, Kv7.2 (KCNQ2) (Homo sapiens, UniProt O43526).
T5 construct: expressed in transfected cells; host or cells: Xenopus oocytes
The series can be described thus: Two-electrode voltage clamp, Xenopus oocytes expressing Kv7.2 (KCNQ2). The series is classed as cell-based. On the procedure: FIG. 12 Exemplar I-V curves showing the effect of 100 μM ML67-33 Kv7.2 (KCNQ2) measured by two-electrode voltage clamp in Xenopus oocytes in 2 mM [K^+]o pH 7.4. Currents were elicited by a step protocol from −120 to 60 mV, in 20 mV increments, from a holding potential of −80 mV.
as §2

The nature of another series: Solubility (remarks). The series is classed as physicochemical.
Series [4] deals with T6, K2P2.1 (TREK-1) (Homo sapiens, UniProt O95069).
T6 sequence (O95069 1-426): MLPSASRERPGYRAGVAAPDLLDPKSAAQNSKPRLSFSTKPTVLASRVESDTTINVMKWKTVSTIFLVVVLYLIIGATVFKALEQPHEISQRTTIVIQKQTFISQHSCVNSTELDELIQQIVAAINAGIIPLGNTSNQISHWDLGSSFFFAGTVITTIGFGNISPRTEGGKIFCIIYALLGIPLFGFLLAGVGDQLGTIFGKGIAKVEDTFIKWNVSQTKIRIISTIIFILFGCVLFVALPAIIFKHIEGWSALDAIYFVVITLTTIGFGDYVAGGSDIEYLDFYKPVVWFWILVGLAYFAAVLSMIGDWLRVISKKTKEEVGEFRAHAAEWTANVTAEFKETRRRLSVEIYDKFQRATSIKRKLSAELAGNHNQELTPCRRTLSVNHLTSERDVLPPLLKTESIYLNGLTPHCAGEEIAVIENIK
Conditions: cited from earlier work.

Setting [5] is: 25 μM, 0 mV, read-out: inhibition at 25 μM at 0 mV.

T3 sequence (O35111 whole entry): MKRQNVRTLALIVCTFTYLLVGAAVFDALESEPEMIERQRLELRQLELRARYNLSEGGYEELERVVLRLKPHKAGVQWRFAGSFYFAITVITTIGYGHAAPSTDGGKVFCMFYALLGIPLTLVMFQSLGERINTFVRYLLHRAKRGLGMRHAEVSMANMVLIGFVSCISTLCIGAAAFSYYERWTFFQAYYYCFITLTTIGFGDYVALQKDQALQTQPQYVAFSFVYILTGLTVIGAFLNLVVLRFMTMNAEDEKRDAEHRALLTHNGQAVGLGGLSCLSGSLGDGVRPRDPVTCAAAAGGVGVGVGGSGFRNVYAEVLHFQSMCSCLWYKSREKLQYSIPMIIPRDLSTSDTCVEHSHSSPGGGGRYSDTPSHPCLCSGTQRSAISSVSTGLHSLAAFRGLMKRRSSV

Consider `Cc1cccc(-n2ncc3c(NCCc4ccccc4)ncnc32)c1` [ML45, 1-(3-methylpyhenyl)-N-(2-phenylethyl)-1H-pyrazolo[3,4-d]pyrimidin-4-amine], for which the “effect on K2P2.1 (TREK-1) function / activity (in words)” value at K2P2.1 (TREK-1) [1] is recorded as “inhibitors”. Also, the inhibition at 25 µM on TREK-1 [2] (read-out: current inhibition at 25 μM) was around 30%.

Turning to `c1ccc(CCNc2ncnc3c2cnn3-c2ccccc2)cc1` [ML45-1, 1-phenyl-N-(2-phenylethyl)-1H-pyrazolo[3,4-d]pyrimidin-4-amine], the inhibition at 25 µM at TREK-1 [2] (setting [5]) is 22.5%.

With `Cc1ccc(-n2ncc3c(NCCc4ccccc4)ncnc32)cc1` [ML45-2, 1-(4-methylphenyl)-N-(2-phenylethyl)-1H-pyrazolo[3,4-d]pyrimidin-4-amine], at TREK-1 [2] (setting [5]), the inhibition at 25 µM was 25.2%. Same read-out and setting: with `Cc1ccc(-n2ncc3c(NCCc4ccccc4)ncnc32)cc1C` [ML45-3, 1-(3,4-dimethylphenyl)-N-(2-phenylethyl)-1H-pyrazolo[3,4-d]pyrimidin-4-amine] the figure was 31.9%. The same measure, in the same setting: with `Clc1ccc(-n2ncc3c(NCCc4ccccc4)ncnc32)cc1` [ML45-4, 1-(4-chlorophenyl)-N-(2-phenylethyl)-1H-pyrazolo[3,4-d]pyrimidin-4-amine] the figure was 20.7%; with `Cc1cccc(-n2ncc3c(NCCc4ccc(S(N)(=O)=O)cc4)ncnc32)c1` [ML45-5, 4-(2-{[1-(3-methylphenyl)-1H-pyrazolo[3,4-d]pyrimidin-4-yl]amino}ethyl)benzene-1-sulfonamide], 2.7%.

Take `O=C(O)CCn1c2ccc(Cl)cc2c2cc(Cl)ccc21` [ML67, 3-(3,6-dichlorocarbazol-9-yl)propanoic acid]: the EC50 on TREK-1 [3] was 213 µM; on K2P10.1 (TREK-2) (Xenopus oocytes, 2 mM [K+]o pH 7.4), above 250 µM. At K2P2.1 (TREK-1) [1], the “effect on K2P2.1 (TREK-1) function / activity (in words)” value is given as “activated the channel”. The “functional effect / activation (in words)” value at K2P3.1 (TASK-1) (ML67-33 applied at 100 μM, ML67 concentration not stated) is “not”. The “Emax (fold) at 500 μM” value on K2P3.1 (TASK-1) (at 500 μM) is reported as 1.2 ± 0.0 at 500 μM fold; at K2P10.1 (TREK-2) (at 500 μM) it was 10.1 ± 1.1 at 500 μM fold; at Kv7.2 (KCNQ2) (at 500 μM) it was 1.8 ± 0.0 at 500 μM fold. The “effect on Kv7.2 (KCNQ2) (in words)” value at Kv7.2 (KCNQ2) (ML67-33 at 100 μM, ML67 concentration not stated) is listed as “no effect”. Turning to `O=C(O)/C=C/n1c2ccc(Cl)cc2c2cc(Cl)ccc21` [ML67-16, (E)-3-(3,6-dichlorocarbazol-9-yl)prop-2-enoic acid], in “Solubility (remarks)”, the “solubility (in words)” value is listed as “insoluble”. The same measure, in the same setting: with `O=C(CCn1c2ccc(Cl)cc2c2cc(Cl)ccc21)NO` [ML67-19, 3-(3,6-dichlorocarbazol-9-yl)-N-hydroxy-propanamide] the entry was “insoluble”.

`CCCCC/C=C\C/C=C\C/C=C\C/C=C\CCCC(=O)O` [arachidonic acid]: the “activation of K2P2.1 (TREK-1)” value at K2P2.1 (TREK-1) [4] (at 10-20 μM) is recorded as 3-12 fold. In the case of `ClC(Cl)Cl` [chloroform], the “activation of K2P2.1 (TREK-1)” value on K2P2.1 (TREK-1) [4] (at 1.6 mM) is 5.5 fold.

A word on the inhibition: it is the relative decrease from the control value, in per cent. In general, EC50 refers to the midpoint of the concentration-response curve. A low value points to a more potent agent.
